From ChEMBL document CHEMBL4706653, “Ultra-short lipopeptides against gram-positive bacteria while alleviating antimicrobial resistance” (Eur J Med Chem, 2021)
≈ marks a conversion by molar mass, not a printed value. Calls of active or inactive are those of the source. The rule behind the calls is not given here. Residues, ends and D or L forms follow the SMILES beside them. *: point of attachment. Myristoyl = CCCCCCCCCCCCCC(=O)*; Lauroyl = CCCCCCCCCCCC(=O)*

What was measured:
[1] = system: Staphylococcus epidermidis; test: Potentiation of ciprofloxacin-induced antimicrobial activity against ciprofloxacin-resistant Staphylococcus epidermidis ATCC 12228 assessed as change in ciprofloxacin MIC at 2 uM after 18 hrs by broth microdilution method relative to ciprofloxacin MIC; assay type: functional
Cell membrane [2] = test: Induction of membrane disruption in Staphylococcus aureus ATCC 25923 assessed as PI-positive cells at 4 times MIC measured after 2 hrs by propidium iodide staining based flow cytometry relative to control
[3] = system: Staphylococcus epidermidis; test: Potentiation of ciprofloxacin-induced antimicrobial activity against Staphylococcus epidermidis ATCC 12228 at 0.5 times MIC after 15 passages by broth microdilution method; assay type: functional, organism-based
Staphylococcus aureus [4] = test: Antibiofilm activity against Staphylococcus aureus ATCC 25923 preformed biofilm at 32 to 64 uM after 24 hrs by LIVE/DEAD (SYTO-9/PI) staining based confocal laser scanning microscopic analysis; assay type: functional, organism-based; settings: dose 32-64 µM
Staphylococcus aureus [5] = test: Antimicrobial activity against Staphylococcus aureus ATCC 25923 at 0.5 times MIC after 15 passages by broth microdilution method; assay type: functional, organism-based
[6] = system: Staphylococcus epidermidis; test: Antimicrobial activity against ciprofloxacin-resistant Staphylococcus epidermidis ATCC 12228 after 18 hrs in presence of polymyxin B by checkerboard assay; assay type: functional, organism-based
Staphylococcus aureus [7] = test: Antimicrobial activity against Staphylococcus aureus ATCC 25923 after 18 hrs in presence of 5% serum by broth microdilution method; assay type: functional
Staphylococcus aureus [8] = test: Antibiofilm activity against Staphylococcus aureus ATCC 25923 at 0.5 to 8 uM after 24 hrs by crystal violet staining based assay; assay type: functional, organism-based; settings: dose 0.5-8 µM
Staphylococcus aureus [9] = test: Antibiofilm activity against Staphylococcus aureus ATCC 25923 preformed biofilm assessed as reduction in preformed biofilm thickness after 24 hrs using LIVE/LEAD (SYTO-9/PI) staining by confocal laser scanning microscopy based 3D image analysis; assay type: functional, organism-based; settings: dose 32-64 µM
Cell membrane [10] = test: Induction of membrane disruption in Staphylococcus aureus ATCC 25923 assessed as increase in non-uniform cell debris level at 4 times MIC measured after 2 to 4 hrs by SEM analysis; assay type: subcellular; settings: time 2-4 hrs
[11] = system: Staphylococcus epidermidis; test: Potentiation of ciprofloxacin-induced antimicrobial activity against ciprofloxacin-resistant Staphylococcus epidermidis ATCC 12228 at 1 uM after 18 hrs by broth microdilution method; assay type: functional, organism-based
[12] = Therapeutic index, ratio of MHC for mouse RBC to geometric mean of peptide MIC for Staphylococcus epidermidis ATCC 12228; assay type: toxicity; settings: pooled result: one value given for 6 cell lines, strains, targets or settings, read-out: TI
Staphylococcus aureus [13] = test: Antimicrobial activity against Staphylococcus aureus ATCC 25923 after 18 hrs by broth microdilution method; assay type: functional
Staphylococcus aureus [14] = test: Antimicrobial activity against ciprofloxacin-treated persistent form of Staphylococcus aureus ATCC 25923 assessed as bacterial killing at 8 times MIC preincubated up to 48 hrs followed by compound washout and subsequent replating on MHB agar by colony counting method; assay type: functional, organism-based; settings: time hrs <=48
Staphylococcus aureus [15] = test: Antimicrobial activity against Staphylococcus aureus ATCC 25923 after 18 hrs in presence of ZnCl2 by broth microdilution method; assay type: functional
Staphylococcus aureus [16] = test: Induction of nucleic acid leakage in Staphylococcus aureus ATCC 25923 at 4 times MIC; assay type: functional
Staphylococcus aureus [17] = test: Antibiofilm activity against Staphylococcus aureus ATCC 25923 at 4 to 8 uM after 24 hrs by LIVE/DEAD (SYTO-9/PI) staining based confocal laser scanning microscopic analysis; assay type: functional, organism-based; settings: dose 4-8 µM
Staphylococcus aureus [18] = test: Potentiation of ciprofloxacin-induced antimicrobial activity against methicillin-resistant Staphylococcus aureus 75 assessed as change in ciprofloxacin MIC at 1 uM after 18 hrs by broth microdilution method relative to ciprofloxacin MIC; assay type: functional
Staphylococcus aureus [19] = test: Antimicrobial activity against ciprofloxacin-resistant Staphylococcus aureus ATCC 25923 at 0.5 times MIC after 15 passages by broth microdilution method; assay type: functional, organism-based
Cell membrane [20] = test: Induction of membrane disruption in Staphylococcus aureus ATCC 25923 assessed as formation of dent at 2 to 4 times MIC measured after 2 to 4 hrs by SEM analysis; assay type: subcellular; settings: time 2-4 hrs
Staphylococcus aureus [21] = test: Antimicrobial activity against ciprofloxacin-resistant Staphylococcus aureus ATCC 25923 after 18 hrs in presence of polymyxin B by checkerboard assay; assay type: functional, organism-based
Staphylococcus aureus [22] = test: Potentiation of EtBr-induced antimicrobial activity against ciprofloxacin-resistant Staphylococcus aureus ATCC 25923 at 1 to 2 uM after 18 hrs by broth microdilution method; assay type: functional, organism-based; settings: dose 1-2 µM
Staphylococcus aureus [23] = test: Antibiofilm activity against Staphylococcus aureus ATCC 25923 assessed as biofilm thickness at 8 uM after 24 hrs using LIVE/LEAD (SYTO-9/PI) staining by confocal laser scanning microscopy based 3D image analysis (reference value: 55 micrometer); assay type: functional
Staphylococcus aureus [24] = test: Antimicrobial activity against Staphylococcus aureus ATCC 25923 after 18 hrs in presence of FeCl3 by broth microdilution method; assay type: functional
Staphylococcus aureus [25] = test: Potentiation of ciprofloxacin-induced antimicrobial activity against methicillin-resistant Staphylococcus aureus 75 at 0.5 uM after 18 hrs by broth microdilution method; assay type: functional, organism-based
Staphylococcus aureus [26] = test: Antimicrobial activity against ciprofloxacin-resistant Staphylococcus aureus ATCC 25923 after 18 hrs by broth microdilution method; assay type: functional, organism-based
Staphylococcus aureus [27] = test: Induction of reactive oxygen species generation in Staphylococcus aureus ATCC 25923 by […] dye based fluorescence assay; assay type: functional, organism-based
[28] = system: Staphylococcus epidermidis; test: Antimicrobial activity against ciprofloxacin-resistant Staphylococcus epidermidis ATCC 12228 at 0.5 times MIC after 15 passages by broth microdilution method; assay type: functional, organism-based
Staphylococcus aureus [29] = test: Potentiation of ciprofloxacin-induced antimicrobial activity against ciprofloxacin-resistant Staphylococcus aureus ATCC 25923 assessed as change in ciprofloxacin MIC at 4 uM after 18 hrs by broth microdilution method relative to ciprofloxacin MIC; assay type: functional
Staphylococcus aureus [30] = test: Antibiofilm activity against Staphylococcus aureus ATCC 25923 at 0.5 to 8 uM after 24 hrs in presence of ciprofloxacin by checkerboard assay; assay type: functional, organism-based; settings: dose 0.5-8 µM
[31] = system: Staphylococcus epidermidis; test: Antimicrobial activity against ciprofloxacin-resistant Staphylococcus epidermidis ATCC 12228 at 0.5 to 8 uM measured after 18 hrs in presence of ciprofloxacin by checkerboard assay; assay type: functional, organism-based; settings: dose 0.5-8 µM
Staphylococcus aureus [32] = test: Antibiofilm activity against Staphylococcus aureus ATCC 25923 assessed as reduction in biofilm thickness after 24 hrs using LIVE/LEAD (SYTO-9/PI) staining by confocal laser scanning microscopy based 3D image analysis; assay type: functional, organism-based; settings: dose 4-8 µM
[33] = system: Staphylococcus epidermidis; test: Antimicrobial activity against Staphylococcus epidermidis ATCC 12228 after 18 hrs by broth microdilution method; assay type: functional
[34] = system: Staphylococcus epidermidis; test: Potentiation of ciprofloxacin-induced antimicrobial activity against ciprofloxacin-resistant Staphylococcus epidermidis ATCC 12228 assessed as change in ciprofloxacin MIC at 4 uM after 18 hrs by broth microdilution method relative to ciprofloxacin MIC; assay type: functional
Staphylococcus aureus [35] = test: Ratio of MIC for antimicrobial activity against Staphylococcus aureus ATCC 25923 in presence of 5% serum to MIC for antimicrobial activity against Staphylococcus aureus ATCC 25923 in absence of serum; assay type: functional
Staphylococcus aureus [36] = test: Antimicrobial activity against Staphylococcus aureus ATCC 25923 after 18 hrs in presence of 2.5% serum by broth microdilution method; assay type: functional
Staphylococcus aureus [37] = test: Antimicrobial activity against methicillin-resistant Staphylococcus aureus 113 after 18 hrs by broth microdilution method; assay type: functional
Staphylococcus aureus [38] = test: Antimicrobial activity against Staphylococcus aureus ATCC 25923 after 18 hrs in presence of 10% serum by broth microdilution method; assay type: functional

CCCCCCCCCCCC(=O)N[C@@H](CCCNC(=N)N)C(=O)N[C@@H](CCCNC(=N)N)C(=O)N[C@@H](Cc1c[nH]c2ccccc12)C(N)=O (Lauroyl-Arg-Arg-Trp-NH2)
fold change (FC) [1]: 2
Activity (Cell membrane [2]): Active
Activity [3]: Active
Activity (Staphylococcus aureus [4]): Active
Activity (Staphylococcus aureus [5]): Active
Activity [6]: Active
MIC (Staphylococcus aureus [7]): 64 µM
Activity (Staphylococcus aureus [8]): Active
Activity (Staphylococcus aureus [9]): Dose-dependent effect
Activity (Cell membrane [10]): Active
Activity [11]: inactive
selectivity ratio [12]: 34.9
MIC (Staphylococcus aureus [13]): 4 µM (≈ 2.79 µg/mL)
Activity (Staphylococcus aureus [14]): Active
MIC (Staphylococcus aureus [15]): 8 µM
Activity (Staphylococcus aureus [16]): inactive
Activity (Staphylococcus aureus [17]): Active
fold change (FC) (Staphylococcus aureus [18]): 2
Activity (Staphylococcus aureus [19]): Active
Activity (Cell membrane [20]): Active
Activity (Staphylococcus aureus [21]): Active
Activity (Staphylococcus aureus [22]): Active
Activity (Staphylococcus aureus [23]): 20 um
MIC (Staphylococcus aureus [24]): 4 µM
Activity (Staphylococcus aureus [25]): inactive
Activity (Staphylococcus aureus [26]): Active
Activity (Staphylococcus aureus [27]): Active
Activity [28]: Active
fold change (FC) (Staphylococcus aureus [29]): 2
Activity (Staphylococcus aureus [30]): inactive
Activity [31]: Active
Activity (Staphylococcus aureus [32]): Dose-dependent effect
MIC [33]: 4 µM (≈ 2.79 µg/mL)
fold change (FC) [34]: 2
Ratio (Staphylococcus aureus [35]): 8
MIC (Staphylococcus aureus [36]): 32 µM
MIC (Staphylococcus aureus [37]): 2 µM (≈ 1.4 µg/mL)
MIC (Staphylococcus aureus [38]): 64 µM

CCCCCCCCCCCCCC(=O)N[C@@H](CCCNC(=N)N)C(=O)N[C@@H](Cc1c[nH]c2ccccc12)C(=O)N[C@@H](Cc1c[nH]c2ccccc12)C(N)=O (Myristoyl-Arg-Trp-Trp-NH2)
fold change (FC) [1]: 2
Activity (Cell membrane [2]): 88.9%
Activity [3]: Active
Activity (Staphylococcus aureus [4]): Active
Activity (Staphylococcus aureus [5]): Active
Activity [6]: Active
MIC (Staphylococcus aureus [7]): 16 µM
Activity (Staphylococcus aureus [8]): Active
Activity (Staphylococcus aureus [9]): Dose-dependent effect
Activity (Cell membrane [10]): Active
Activity [11]: inactive
selectivity ratio [12]: 56.9
MIC (Staphylococcus aureus [13]): 8 µM (≈ 6.05 µg/mL)
Activity (Staphylococcus aureus [14]): Active
MIC (Staphylococcus aureus [15]): 8 µM
Activity (Staphylococcus aureus [16]): inactive
Activity (Staphylococcus aureus [17]): Active
fold change (FC) (Staphylococcus aureus [18]): 2
Activity (Staphylococcus aureus [19]): Active
Activity (Cell membrane [20]): Active
Activity (Staphylococcus aureus [21]): Active
Activity (Staphylococcus aureus [22]): Active
Activity (Staphylococcus aureus [23]): 16 um
MIC (Staphylococcus aureus [24]): 8 µM
Activity (Staphylococcus aureus [25]): inactive
Activity (Staphylococcus aureus [26]): Active
Activity (Staphylococcus aureus [27]): Active
Activity [28]: Active
fold change (FC) (Staphylococcus aureus [29]): 2
Activity (Staphylococcus aureus [30]): inactive
Activity [31]: Active
Activity (Staphylococcus aureus [32]): Dose-dependent effect
MIC [33]: 16 µM (≈ 12.1 µg/mL)
fold change (FC) [34]: 2
Ratio (Staphylococcus aureus [35]): 2
MIC (Staphylococcus aureus [36]): 8 µM
MIC (Staphylococcus aureus [37]): 4 µM (≈ 3.02 µg/mL)
MIC (Staphylococcus aureus [38]): 16 µM
